Measurements from US10004732B2 (Novartis AG, priority 2014, dated 2018).
pIC50: −log10 of the molar value.

Tests used:
[1] = Microsomal clearance assay (M); conditions: intrinsic clearance in rat liver microsomes
Experimental: The experiments were performed in 96-well glass plates at 37° C. on an automated Tecan EVO platform. Test compounds at a concentration of 10 mM in pure DMSO were diluted 1:1000 in water to 10 μM. […] Reactions were initiated by the addition of 150 μL of a cofactor solution containing 2 mM NADPH.

[2] = biological target: Vps34 (Homo sapiens, UniProt Q8NEB9); assay: Kinase Glo Luminescent Kinase Assay (Kglo), assay C; assay type: biochemical; conditions: read-out: Assay C VPS34 IC50
[3] = biological target: T1, PI 3-kinase delta (Homo sapiens, UniProt O00329); assay: TR-FRET Adapta assay, assay F
Target sequence in this assay (O00329 whole entry): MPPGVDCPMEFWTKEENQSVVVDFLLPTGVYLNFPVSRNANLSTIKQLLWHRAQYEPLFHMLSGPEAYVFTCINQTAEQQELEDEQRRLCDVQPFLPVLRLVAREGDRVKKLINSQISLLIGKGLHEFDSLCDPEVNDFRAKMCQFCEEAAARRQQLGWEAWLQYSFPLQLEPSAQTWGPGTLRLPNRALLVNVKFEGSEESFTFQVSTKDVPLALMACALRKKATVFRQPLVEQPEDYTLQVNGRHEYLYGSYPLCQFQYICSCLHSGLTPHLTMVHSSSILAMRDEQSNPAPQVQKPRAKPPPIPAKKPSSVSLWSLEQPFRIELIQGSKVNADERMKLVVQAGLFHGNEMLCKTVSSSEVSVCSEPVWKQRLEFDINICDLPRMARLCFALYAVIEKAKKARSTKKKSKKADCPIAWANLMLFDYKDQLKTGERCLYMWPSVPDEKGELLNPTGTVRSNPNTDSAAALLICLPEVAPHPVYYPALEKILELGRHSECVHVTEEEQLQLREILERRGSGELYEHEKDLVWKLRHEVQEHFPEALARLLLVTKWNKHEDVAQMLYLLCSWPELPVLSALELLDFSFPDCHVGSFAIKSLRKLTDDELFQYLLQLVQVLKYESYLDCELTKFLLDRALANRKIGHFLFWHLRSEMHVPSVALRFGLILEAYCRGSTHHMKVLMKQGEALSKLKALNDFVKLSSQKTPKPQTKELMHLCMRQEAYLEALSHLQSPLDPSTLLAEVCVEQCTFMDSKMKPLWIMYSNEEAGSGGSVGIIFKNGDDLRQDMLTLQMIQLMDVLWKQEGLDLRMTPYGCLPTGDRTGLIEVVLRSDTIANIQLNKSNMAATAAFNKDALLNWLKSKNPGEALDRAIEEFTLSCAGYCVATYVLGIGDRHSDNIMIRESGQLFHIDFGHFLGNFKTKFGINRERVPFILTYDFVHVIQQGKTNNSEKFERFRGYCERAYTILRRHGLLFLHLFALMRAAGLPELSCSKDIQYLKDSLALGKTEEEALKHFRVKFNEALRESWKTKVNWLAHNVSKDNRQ
Target sequence in this assay (P27986 461-568 partner): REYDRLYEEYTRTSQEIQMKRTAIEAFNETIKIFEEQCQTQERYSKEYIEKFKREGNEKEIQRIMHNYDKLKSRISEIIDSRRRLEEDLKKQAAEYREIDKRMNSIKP

[4] = biological target: PI 4-kinase beta (Homo sapiens, UniProt Q9UBF8); assay: Kinase Glo Luminescent Kinase Assay (Kglo), assay D; assay type: biochemical; conditions: read-out: Assay D PI4Kβ IC50
Chain of PI 4-kinase beta (Q9UBF8 whole entry): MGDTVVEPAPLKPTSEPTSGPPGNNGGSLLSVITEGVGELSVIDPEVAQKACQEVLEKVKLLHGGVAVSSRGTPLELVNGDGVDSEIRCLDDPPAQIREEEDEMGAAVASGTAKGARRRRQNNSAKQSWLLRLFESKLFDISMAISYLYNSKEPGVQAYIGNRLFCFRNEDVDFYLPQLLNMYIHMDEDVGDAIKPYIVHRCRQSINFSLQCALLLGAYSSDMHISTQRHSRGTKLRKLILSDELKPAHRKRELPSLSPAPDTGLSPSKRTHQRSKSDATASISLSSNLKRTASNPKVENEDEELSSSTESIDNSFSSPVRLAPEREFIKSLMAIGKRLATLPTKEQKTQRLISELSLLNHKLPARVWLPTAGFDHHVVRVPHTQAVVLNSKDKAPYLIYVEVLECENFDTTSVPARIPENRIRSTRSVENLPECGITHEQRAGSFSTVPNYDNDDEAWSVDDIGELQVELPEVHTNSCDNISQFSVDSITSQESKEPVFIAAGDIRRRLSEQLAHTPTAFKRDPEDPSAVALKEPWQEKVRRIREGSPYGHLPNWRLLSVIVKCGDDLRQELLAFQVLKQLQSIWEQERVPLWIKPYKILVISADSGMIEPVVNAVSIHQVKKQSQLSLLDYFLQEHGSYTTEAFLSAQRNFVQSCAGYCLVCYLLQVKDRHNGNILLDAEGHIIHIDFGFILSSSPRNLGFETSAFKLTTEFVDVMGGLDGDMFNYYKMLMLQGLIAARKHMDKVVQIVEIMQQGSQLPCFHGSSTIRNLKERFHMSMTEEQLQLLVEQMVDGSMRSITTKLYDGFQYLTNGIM
Experimental: Kinase Glo Luminescent Kinase Assay (Kglo) for Pb 3-Kinase Alpha (A), Pb 3-Kinase Beta (B), Vps34 (C), Pb 4-Kinase Beta (D)
The Kinase Glo Luminescent Kinase Assay (Promega, Madison/Wis., USA) is a homogeneous HTS method of measuring kinase activity by quantifying the amount of ATP remaining in solution following a kinase reaction.
L-α-phosphatidylinositol (PI), provided as 10 mg/ml solution in methanol, was transferred into a glass tube and dried under a nitrogen beam. It was then resuspended in 3% OctylGlucoside (1-0-n-octyl-beta-D-glucopyranoside) by vortexing and stored at 4° C. 5 μL of a mix of PI/OctylGlucoside with the PI 3-kinase alpha and PI 3-kinase beta subtypes, or Vps34 or PI 4-kinase beta were added. Kinase reactions were started by the addition of 5 μl of an ATP-mix containing in a final volume 10 μL 10 mM TRIS-HCl pH 7.5, 3 mM MgCl2, 50 mM NaCl, 0.05% CHAPS, 1 mM DTT and 1 μM ATP at room temperature.
All fits were performed with the program XLfit4 (ID Business Solutions, Guildford, UK).

[5] = biological target: T2, PI 3-kinase gamma (Homo sapiens, UniProt P48736); assay: Cellular U937 AKT assay K1 (MSD); assay type: cell-based; conditions: U937 cells, K1 format; read-out: Assay K1 PI3Kγ IC50
T2 sequence (P48736 whole entry): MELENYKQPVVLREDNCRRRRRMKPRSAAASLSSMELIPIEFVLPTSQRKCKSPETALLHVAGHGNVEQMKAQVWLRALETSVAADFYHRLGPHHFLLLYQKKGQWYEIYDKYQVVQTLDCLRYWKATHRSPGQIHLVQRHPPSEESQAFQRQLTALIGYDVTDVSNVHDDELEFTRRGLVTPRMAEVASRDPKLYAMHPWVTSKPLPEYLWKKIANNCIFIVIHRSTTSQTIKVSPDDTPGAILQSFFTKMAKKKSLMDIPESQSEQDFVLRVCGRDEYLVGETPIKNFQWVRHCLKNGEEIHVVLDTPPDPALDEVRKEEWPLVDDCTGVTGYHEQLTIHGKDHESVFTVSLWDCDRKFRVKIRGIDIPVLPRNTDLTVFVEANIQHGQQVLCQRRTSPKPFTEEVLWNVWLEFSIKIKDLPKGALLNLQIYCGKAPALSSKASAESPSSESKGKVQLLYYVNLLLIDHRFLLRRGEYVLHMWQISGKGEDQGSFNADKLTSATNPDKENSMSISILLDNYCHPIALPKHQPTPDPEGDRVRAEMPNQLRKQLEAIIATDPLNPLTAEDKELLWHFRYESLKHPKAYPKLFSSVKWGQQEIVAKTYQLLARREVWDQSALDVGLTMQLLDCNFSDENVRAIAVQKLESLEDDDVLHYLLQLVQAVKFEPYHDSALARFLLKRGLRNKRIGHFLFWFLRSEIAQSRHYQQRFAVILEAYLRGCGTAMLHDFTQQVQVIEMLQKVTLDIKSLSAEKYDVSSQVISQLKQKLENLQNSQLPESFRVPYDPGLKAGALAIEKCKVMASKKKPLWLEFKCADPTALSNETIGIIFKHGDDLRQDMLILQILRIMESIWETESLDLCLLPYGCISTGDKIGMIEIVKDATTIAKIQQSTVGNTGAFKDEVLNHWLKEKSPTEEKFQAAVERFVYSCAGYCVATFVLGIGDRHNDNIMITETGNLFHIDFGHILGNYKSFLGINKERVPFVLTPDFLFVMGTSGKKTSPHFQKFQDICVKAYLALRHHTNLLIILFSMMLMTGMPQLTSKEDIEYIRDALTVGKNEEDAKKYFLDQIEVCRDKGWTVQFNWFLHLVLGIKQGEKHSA

[6] = biological target: T3, PI 3-kinase beta (Homo sapiens, UniProt P42338); assay: Kinase Glo Luminescent Kinase Assay (Kglo), assay B; assay type: biochemical; conditions: read-out: Assay B PI3Kβ IC50
[7] = biological target: T4, PI 3-kinase alpha (Homo sapiens, UniProt P42336); assay: Kinase Glo Luminescent Kinase Assay (Kglo), assay A; assay type: biochemical; conditions: read-out: Assay A PI3Kα IC50
[8] = biological target: T2, PI 3-kinase gamma; assay: Cellular U937 AKT assay K2 (HTRF); assay type: cell-based; conditions: U937 cells, K2 format; read-out: Assay K2 PI3Kγ IC50
Experimental: In assays K1 and K2, the compounds were tested for their ability to inhibit the production of phosphorylated AKT (Protein Kinase B) generated in a PI 3-kinase gamma isoform-dependent process in a U937 human cell line.
Cellular U937 AKT Assay for PI 3-Kinase Gamma (K2)
U937 cells are split every 3-4 days: 5×10^6 cells/flask (175 cm^2) in 40 ml.
Semi-automated preparation of cell lysates: Cells were resuspended in HBSS, seeded (200′000 cells/well/60 μl) into a 384-well plate and incubated in a humidified 37° C., 5% CO2 incubator for 1.5 hours. The compounds were diluted with HBSS and 40 μl were added to the starved cells (except for wells 24 I-P). […] The cells were then incubated for 30 minutes at 37° C. and 5% CO2. Stimulation occurred during 3 minutes by addition of 20 μl MIP1α (final 10 ng/ml, diluted in HBSS) in the incubator. Wells 24 A-H were only stimulated with HBSS.
The stimulation was then stopped by putting the cell plates on ice (filled with cold water). The cells were then centrifuged at 1200 rpm and 4° C. for 3 minutes.
80 μl of supernatant was removed. The cells were again centrifuged at 1200 rpm and 4° C. for 3 minutes. The supernatant was then removed by turning plates upside down and 30 μl of lysis buffer were added. The plate was incubated at room temperature for 30 minutes under shaking. 16 μl were then transferred to a ProxiPlate Plus 384-well. 4 μl of the master mix (each conjugate diluted 1:20 with detection reagent) were added to each well and the plate was kept in the dark at room temperature for 4 hours.

[9] = biological target: T2, PI 3-kinase gamma; assay: TR-FRET Adapta assay, assay E; assay type: biochemical; conditions: read-out: Assay E PI3Kγ IC50
[10] = biological target: mTOR (Homo sapiens, UniProt P42345); assay: Lanthascreen kinase binding assay, assay G; conditions: read-out: Assay G mTOR IC50
Experimental: Lanthascreen™ Kinase Binding Assay for mTOR (G)
Binding of an inhibitor to the kinase competes for binding with the tracer, resulting in a loss of FRET.
50 nL of compound dilutions were dispensed onto white 384-well small volume polystyrene plate.

[11] = biological target: T3, PI 3-kinase beta; assay: Cellular assay I1, p-Akt (S473) in Rat-1 cells, Surefire format; assay type: cell-based; conditions: non-asterisked data: version I1 (Surefire format), Rat-1 cells; read-out: Assay I PI3Kβ IC50
[12] = biological target: T4, PI 3-kinase alpha; assay: Cellular assay H1, p-Akt (S473) in Rat-1 cells, Surefire format; assay type: cell-based; conditions: non-asterisked data: version H1 (Surefire format), Rat-1 cells; read-out: Assay H PI3Kα IC50
[13] = biological target: T1, PI 3-kinase delta; assay: Cellular assay J1, p-Akt (S473) in Rat-1 cells, Surefire format; assay type: cell-based; conditions: non-asterisked data: version J1 (Surefire format), Rat-1 cells; read-out: Assay J PI3Kδ IC50
Target sequence in this assay (O00329 whole entry): as the sequence (O00329 whole entry) above
Target sequence in this assay (Q63787 whole entry partner): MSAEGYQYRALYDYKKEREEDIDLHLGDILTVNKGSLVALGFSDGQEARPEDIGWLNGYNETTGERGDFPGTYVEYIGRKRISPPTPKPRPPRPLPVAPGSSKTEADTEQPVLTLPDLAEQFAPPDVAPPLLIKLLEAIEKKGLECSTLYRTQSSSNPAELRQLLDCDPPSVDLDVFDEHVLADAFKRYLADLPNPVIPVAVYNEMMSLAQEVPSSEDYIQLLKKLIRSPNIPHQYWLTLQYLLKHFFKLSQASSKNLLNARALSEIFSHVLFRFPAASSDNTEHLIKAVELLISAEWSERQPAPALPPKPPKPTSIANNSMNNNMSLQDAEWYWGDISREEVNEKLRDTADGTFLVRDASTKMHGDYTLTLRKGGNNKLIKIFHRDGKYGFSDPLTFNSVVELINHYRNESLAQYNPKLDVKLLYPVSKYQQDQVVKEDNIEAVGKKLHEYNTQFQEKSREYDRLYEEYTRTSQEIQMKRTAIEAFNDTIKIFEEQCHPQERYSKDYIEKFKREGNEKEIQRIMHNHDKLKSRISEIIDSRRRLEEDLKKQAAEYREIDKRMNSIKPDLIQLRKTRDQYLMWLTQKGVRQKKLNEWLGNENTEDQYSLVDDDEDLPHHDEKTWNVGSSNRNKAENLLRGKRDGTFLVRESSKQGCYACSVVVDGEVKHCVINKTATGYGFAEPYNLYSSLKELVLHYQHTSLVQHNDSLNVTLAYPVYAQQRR

[14] = test system: IL-8-induced neutrophil shape change in human whole blood; assay: Whole blood neutrophil shape change assay (L); assay type: cell-based; conditions: Homo sapiens, Neutrophil, IL-8, human whole blood, read-out: Assay L WBSC IC50
Experimental: Whole Blood Neutrophil Shape Change Assay (L)
IL-8 was made up to 2 μM stocks in 0.1% bovine serum albumin/PBS and stored at −80° C. On the day IL-8 was diluted in PBS (phosphate buffered saline) 10 minutes before use. IL-8 was used at final concentration of 2 nM and a concentration range from 0.003 to 200 nM for the donor dose response curve.
Assay fixative solution was prepared fresh each day from 10× concentrated CellFIX™ solution diluted 1:10 in sterile distilled water and then 1:4 with PBS. Assay fixative solution was kept on ice prior to use.
A 10× lysis buffer was prepared in advance by dissolving 20.75 g NH4Cl and 2.5 g KHCO3 in 250 ml sterile H2O. This 10× lysis buffer was filtered under sterile conditions and stored for up to two weeks at 4° C. On the day a 1× lysis solution was prepared with sterile distilled H2O and kept on ice prior to use.
The test compounds were prepared as 10 mM stock solutions in 100% DMSO and were stored at 4° C. Once in use for an assay 10 mM stock compounds were thawed and stored at RT protected from light. Compound dilutions were prepared fresh on the day. The first series of dilutions in 100% DMSO were done first thing in the morning. Only once blood had been collected and arrived in laboratory was the next set of dilutions into PBS carried out (1:10 PBS, 10% DMSO). This limited the exposure of diluted compound to plastic and made sure the exposure timing was consistent between assays.
Compound dilutions in 100% DMSO were prepared as described previously. Human whole blood was collected in K2 EDTA Vacutainers. Once blood was in the laboratory, compound dilutions into PBS were carried out as described previously and depicted in Table 1.
The outer wells of the deep well assay plate were filled with 1200 μl of sterile distilled H2O in an effort to limit edge effects (rows A1-H1, A1-A12, A12-H12).
An IL-8 dose response was determined for each blood donor examined, to monitor the donor response to IL-8. At this step in assay preparation for the IL-8 dose response samples 10 μl of PBS was added to designated wells. In addition the assay window without DMSO was also assessed each day. For such samples at this step in assay preparation 10 μl of PBS was added in the place of 10% DMSO.
Lids were placed on the 96 well plates and samples were incubated for 15 minutes at 37° C. in a water-bath.
Following the compound pre-incubation 10× final IL-8 was added to appropriate wells (10 μl of 20 nM working stock IL-8, final IL-8 concentration in blood=2 nM) and 10 μl of PBS was added to the un-stimulated controls. 10× final dose response range IL-8 was also added to designated wells (final concentration range on assay plate was 200 nM to 0.0005 nM, 1:5 serial dilution in PBS). The IL-8 and PBS were added to appropriate wells across all assay plates in the same sequence as the blood to compound addition. […] Samples were incubated for 5 minutes at 37° C. in a water-bath. Following the incubation sample plates were transferred to ice where 250 μl of chilled Assay Fixative Buffer was added promptly to all wells.
Samples were incubated on ice for 7 minutes (no mixing). […] Once added samples were mixed once and incubated on ice for 30 minutes to achieve uniform red blood cells lysis. After lysis, 200 μl of sample was transferred to a 96 well microplate on ice. […] Granulocytes were identified based on differential side scatter (SSC) and forward scatter (FSC) characteristics.

Chain of Vps34 (Q8NEB9 whole entry, species assumed): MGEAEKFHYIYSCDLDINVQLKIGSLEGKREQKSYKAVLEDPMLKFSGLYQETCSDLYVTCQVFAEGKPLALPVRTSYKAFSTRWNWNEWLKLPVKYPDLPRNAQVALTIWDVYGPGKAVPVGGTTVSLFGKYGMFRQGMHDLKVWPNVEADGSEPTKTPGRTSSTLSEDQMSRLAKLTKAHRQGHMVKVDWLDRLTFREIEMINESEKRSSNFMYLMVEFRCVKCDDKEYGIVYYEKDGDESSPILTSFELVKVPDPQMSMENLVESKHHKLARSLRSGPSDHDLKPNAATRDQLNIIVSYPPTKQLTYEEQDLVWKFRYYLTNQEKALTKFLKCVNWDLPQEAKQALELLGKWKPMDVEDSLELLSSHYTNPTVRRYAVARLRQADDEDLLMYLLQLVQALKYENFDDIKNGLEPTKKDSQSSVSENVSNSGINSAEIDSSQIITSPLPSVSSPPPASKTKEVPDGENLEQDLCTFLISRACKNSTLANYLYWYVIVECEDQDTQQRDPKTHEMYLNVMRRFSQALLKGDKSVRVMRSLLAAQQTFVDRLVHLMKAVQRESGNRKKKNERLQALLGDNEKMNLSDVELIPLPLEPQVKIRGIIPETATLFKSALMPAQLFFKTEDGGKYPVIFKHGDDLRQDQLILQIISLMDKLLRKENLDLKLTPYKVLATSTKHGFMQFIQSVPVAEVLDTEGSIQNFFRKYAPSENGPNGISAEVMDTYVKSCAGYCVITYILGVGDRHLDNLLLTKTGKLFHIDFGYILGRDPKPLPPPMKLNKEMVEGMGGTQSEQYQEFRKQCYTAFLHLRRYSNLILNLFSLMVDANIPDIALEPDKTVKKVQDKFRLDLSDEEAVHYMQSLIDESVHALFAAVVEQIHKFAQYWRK

SMILES | Assay M RLM CI(int) [1] [µL/min/mg] | pIC50 [2] | pIC50 ([3]; read-out: Assay F PI3Kδ IC50) | pIC50 [4] | pIC50 [5] | pIC50 [6] | pIC50 [7] | pIC50 [8] | pIC50 [9] | pIC50 [10] | pIC50 [11] | pIC50 [12] | pIC50 [13] | pIC50 [14] | pIC50 [3]
Cc1ccc(S(=O)(=O)NCC(C)(C)O)cc1-c1cnc(N)c(-c2ccoc2)n1 [Example 39, 3-(5-Amino-6-(furan-3-yl)pyrazin-2-yl)-N-(2-hydroxy-2-methylpropyl)-4-methylbenzenesulfonamide] | 88 | < 5.02 | 5.97 | 5.15 | 6.72 | 5.40 | 6.10 | 6.00 | 7.17 | < 5.02 |  |  |  |  | 
CCN1CCC[C@@H]1CNS(=O)(=O)c1ccc(C)c(-c2cnc(N)c(-c3cnc(C)s3)n2)c1 [Example 41, (R)-3-(5-Amino-6-(2-methylthiazol-5-yl)pyrazin-2-yl)-N-((1-ethylpyrrolidin-2-yl)methyl)-4-methylbenzenesulfonamide] | 314 | 5.11 | 7.70 | 5.03 | 7.41 | 6.60 | 6.96 | 7.62 | 8.00 |  | 6.01 | < 5.52 | > 8.52 |  | 
Cc1ncc(-c2nc(-c3cc(S(=O)(=O)NC[C@H]4CCOC4)ccc3C)cnc2N)s1 [Example 42, (R)-3-(5-Amino-6-(2-methylthiazol-5-yl)pyrazin-2-yl)-4-methyl-N-((tetrahydrofuran-3-yl)methyl)benzenesulfonamide] | 160 | 5.33 | 7.52 | 5.46 | 7.85 | 6.18 | 7.52 | 7.74 | 8.15 |  | 6.10 | 6.89 | 6.80 |  | 
Cc1ncc(-c2nc(-c3cc(S(=O)(=O)NC4CCOCC4)ccc3C)cnc2N)s1 [Example 45.3, 3-(5-Amino-6-(2-methylthiazol-5-yl)pyrazin-2-yl)-4-methyl-N-(tetrahydro-2H-pyran-4-yl)benzenesulfonamide] | 78 | 5.80 | 7.00 | 5.80 |  | 6.62 | 7.40 | 6.31 | 7.89 |  |  |  |  |  | 
Cc1ncc(-c2nc(-c3cc(S(=O)(=O)N4CC(CO)C4)ccc3C)cnc2N)s1 [Example 45.8, (1-((3-(5-Amino-6-(2-methylthiazol-5-yl)pyrazin-2-yl)-4-methylphenyl)sulfonyl)azetidin-3-yl)methanol] | 67 | 5.70 | 6.49 | 5.48 |  | 6.23 | 7.05 | 6.50 | 6.89 |  |  |  |  |  | 
COC1(C)CN(S(=O)(=O)c2ccc(C)c(-c3cnc(N)c(-c4cn(C)nc4C)n3)c2)C1 [Example 102, 3-(1,3-Dimethyl-1H-pyrazol-4-yl)-5-(5-(3-methoxy-3-methylazetidin-1-ylsulfonyl)-2-methylphenyl)pyrazin-2-amine] | 75 | < 5.00 | 6.05 | 5.23 |  | 5.74 | 6.26 | 6.68 | 6.82 | 5.54 | 5.28 | 5.34 | 5.88 |  | 
Cc1ccc(S(=O)(=O)N2CC(F)(F)C2)cc1-c1cnc(N)c(-n2cncn2)n1 [Example 127.4] | 85 | < 5.02 | 5.60 | 5.38 | 5.71 | 5.18 | 5.59 | 5.83 | 6.59 | < 5.02 |  |  |  |  | 
CCN1CCC[C@H]1CNS(=O)(=O)c1ccc(C)c(-c2cnc(N)c(-c3cn(C)nc3C)n2)c1 [Example 128.1, (S)-3-(5-Amino-6-(1,3-dimethyl-1H-pyrazol-4-yl)pyrazin-2-yl)-N-((1-ethylpyrrolidin-2-yl)methyl)-4-methylbenzenesulfonamide] |  | < 5.00 | 6.60 | < 5.00 |  | 5.52 | 6.00 | 6.48 |  |  | < 5.00 | < 5.00 | 5.79 |  | 
Cc1ccc(S(=O)(=O)NCC2(C)CCCO2)cc1-c1cnc(N)c(-c2cn(C)nc2C)n1 (stereo not drawn) [Example 128.4, 3-(5-Amino-6-(1,3-dimethyl-1H-pyrazol-4-yl)pyrazin-2-yl)-4-methyl-N-((2-methyltetrahydrofuran-2-yl)methyl)benzenesulfonamide] | 134 | < 5.00 | 6.30 | < 5.00 | 6.98 | 5.77 | 7.00 | 6.55 | 7.35 |  | 5.81 | 5.82 | 6.11 |  | 
Cc1cc(-c2nc(-c3cc(S(=O)(=O)NC[C@@H]4CCNC4)ccc3C)cnc2N)ccn1 [Example 129.35, (R)-3-(5-amino-6-(2-methylpyridin-4-yl)pyrazin-2-yl)-4-methyl-N-(pyrrolidin-3-ylmethyl)benzenesulfonamide] |  | < 5.04 | 5.92 | < 5.04 |  | < 5.04 | 5.68 | < 5.00 | 7.05 | < 5.04 |  |  |  |  | 
Cc1cc(-c2nc(-c3cc(S(=O)(=O)NC[C@H]4CCNC4)ccc3C)cnc2N)ccn1 [Example 129.36, (S)-3-(5-amino-6-(2-methylpyridin-4-yl)pyrazin-2-yl)-4-methyl-N-(pyrrolidin-3-ylmethyl)benzenesulfonamide] | 15 | < 5.04 | 6.02 | < 5.04 | 5.21 | 5.16 | 5.89 | < 5.00 | 6.96 | < 5.04 | < 5.52 | < 5.00 |  |  | 
Cc1ccc(S(=O)(=O)NCCC(C)(C)O)cc1-c1cnc(N)c(-c2cnn(CC(F)(F)F)c2)n1 [Example 130, 3-(5-Amino-6-(1-(2,2,2-trifluoroethyl)-1H-pyrazol-4-yl)pyrazin-2-yl)-N-(3-hydroxy-3-methylbutyl)-4-methylbenzenesulfonamide] | 62 | < 5.04 | 6.74 | 5.15 | 7.19 | 5.55 | 6.82 |  | 7.92 | 5.29 | 5.34 | 5.79 | 5.92 | 6.13 | 
Cc1cc(-c2nc(-c3cc(S(=O)(=O)N[C@H]4CC[C@H](O)CC4)ccc3C)cnc2N)ccn1 [Example 135, 3-(5-Amino-6-(2-methylpyridin-4-yl)pyrazin-2-yl)-N-((1r,4r)-4-hydroxycyclohexyl)-4-methylbenzenesulfonamide] | 30 | < 5.02 |  | 5.38 | 7.20 | 5.28 | 6.74 |  | 7.29 | 5.36 | 5.06 | 5.11 | 5.03 | 6.44 | 5.77
CCc1nnc(-c2nc(-c3cc(S(=O)(=O)N[C@H]4CC[C@H](O)CC4)ccc3C)cnc2N)o1 [Example 138, Trans-3-(5-Amino-6-(5-ethyl-1,3,4-oxadiazol-2-yl)pyrazin-2-yl)-N-((1r,4r)-4-hydroxycyclohexyl)-4-methylbenzenesulfonamide] | 31 | < 5.04 | 6.07 | 5.07 | 6.59 | < 5.04 | 5.57 |  | 8.40 | < 5.04 | < 5.00 | 5.06 | 5.45 | 5.32 | 
CCCc1noc(-c2nc(-c3cc(S(=O)(=O)N[C@H]4CC[C@H](O)CC4)ccc3C)cnc2N)n1 [Example 140, Trans-3-[5-Amino-6-(3-propyl-[1,2,4]oxadiazol-5-yl)-pyrazin-2-yl]-N-(4-hydroxy-cyclohexyl)-4-methyl-benzene sulfonamide] | 82 | < 5.04 | 7.05 | < 5.04 | 7.29 | 5.15 | 6.62 |  | 7.80 | 5.05 | 5.20 | 5.95 | 6.08 | 6.09 | 
